Assay results published in PubChem BioAssay (NCI).
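Assay format: 96-well plates, 48-hour exposure. GI50 marks 50% less growth. TGI: total growth inhibition.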

What follows are compounds tested on RXF 393 renal (assay: inhibition of tumour cell growth, NCI panel, 48 h).

`CCO/C=N\C1=C(C#N)SC2=N/C(=C\c3ccc(OC)cc3)C(=O)N21` was tested, and the TGI was > 100 µM.

These compounds were tested on SNB-19 CNS (assay: inhibition of tumour cell growth, NCI panel, 48 h).

First: CC(=O)OC1C(Oc2c(C)cc3c(c2O)[C@@H](C)CC[C@@H]3[C@@H](C)CCC=C(C)C)OCC(O)C1O (some centres undefined)
Second: CN1CCN(CCCNc2nc3ccc(Oc4ccc(NC(=O)Nc5cc(C(F)(F)F)ccc5F)cc4)cc3[nH]2)CC1
The TGI of the first is 4.7-fold higher: 35.1 µM for the first, 7.42 µM for the second.

`Cc1ccc2c(c1)CC1(Cc3ccccc3C1=O)C2=O` (centres undefined) and `CSc1cc(Cl)c(C)cc1S(=O)(=O)NC(=O)NNc1cccc(C(F)(F)F)n1` cannot be ordered by TGI: > 100 µM for the first, > 100 µM for the second.

For `CCO/C=N\C1=C(C#N)SC2=N/C(=C\c3ccc(OC)cc3)C(=O)N21`, the TGI was > 100 µM.

In the case of `CN1CCN(CCCNc2nc3ccc(Oc4ccc(NC(=O)Nc5cc(C(F)(F)F)ccc5F)cc4)cc3[nH]2)CC1`, the GI50 was 3.99 µM.

These compounds were tested on HCT-15 colon (assay: inhibition of tumour cell growth, NCI panel, 48 h).

Compared with `CC(=O)OC1C(Oc2c(C)cc3c(c2O)[C@@H](C)CC[C@@H]3[C@@H](C)CCC=C(C)C)OCC(O)C1O` (some centres undefined), `COc1cccc2c1C(=O)c1c(O)c3c(c(O)c1C2=O)CC(O)(C(=O)CO)CC3OC1CC(N2CCOCC2C#N)C(O)C(C)O1` (centres undefined) is 22-fold lower in TGI: 34.1 µM for the first, 1.56 µM for the second.

Going from `Cc1ccc2c(c1)CC1(Cc3ccccc3C1=O)C2=O` (centres undefined) to `Cc1sc2nc(-c3cccc([N+](=O)[O-])c3)c(/C=N/N=C(N)N)n2c1C`, the TGI falls from > 100 µM to 3.03 µM.

`CSc1cc(Cl)c(C)cc1S(=O)(=O)NC(=O)NNc1cccc(C(F)(F)F)n1` and `CN1CCN(CCCNc2nc3ccc(Oc4ccc(NC(=O)Nc5cc(C(F)(F)F)ccc5F)cc4)cc3[nH]2)CC1` cannot be ordered by TGI: > 100 µM for the first, > 25 µM for the second.

With `CCO/C=N\C1=C(C#N)SC2=N/C(=C\c3ccc(OC)cc3)C(=O)N21` the TGI was > 100 µM.

In the case of `CN1CCN(CCCNc2nc3ccc(Oc4ccc(NC(=O)Nc5cc(C(F)(F)F)ccc5F)cc4)cc3[nH]2)CC1`, the GI50 was > 25 µM.

Each compound was assayed on SN12C renal (assay: inhibition of tumour cell growth, NCI panel, 48 h).

Compared with `CC(=O)OC1C(Oc2c(C)cc3c(c2O)[C@@H](C)CC[C@@H]3[C@@H](C)CCC=C(C)C)OCC(O)C1O` (some centres undefined), `COc1cccc2c1C(=O)c1c(O)c3c(c(O)c1C2=O)CC(O)(C(=O)CO)CC3OC1CC(N2CCOCC2C#N)C(O)C(C)O1` (centres undefined) is 30000-fold lower in TGI: 32.2 µM for the first, 0.00109 µM for the second.

`Cc1ccc2c(c1)CC1(Cc3ccccc3C1=O)C2=O` (centres undefined) and `CSc1cc(Cl)c(C)cc1S(=O)(=O)NC(=O)NNc1cccc(C(F)(F)F)n1` cannot be ordered by TGI: > 100 µM for the first, > 100 µM for the second.

Compared with `CN1CCN(CCCNc2nc3ccc(Oc4ccc(NC(=O)Nc5cc(C(F)(F)F)ccc5F)cc4)cc3[nH]2)CC1`, `CCO/C=N\C1=C(C#N)SC2=N/C(=C\c3ccc(OC)cc3)C(=O)N21` is higher in TGI: 11.2 µM for the first, > 100 µM for the second.

`CN1CCN(CCCNc2nc3ccc(Oc4ccc(NC(=O)Nc5cc(C(F)(F)F)ccc5F)cc4)cc3[nH]2)CC1` gave a GI50 of 4.77 µM.

What follows are compounds tested on NCI-H460 lung (assay: inhibition of tumour cell growth, NCI panel, 48 h).

Compared with `CC(=O)OC1C(Oc2c(C)cc3c(c2O)[C@@H](C)CC[C@@H]3[C@@H](C)CCC=C(C)C)OCC(O)C1O` (some centres undefined), `CN1CCN(CCCNc2nc3ccc(Oc4ccc(NC(=O)Nc5cc(C(F)(F)F)ccc5F)cc4)cc3[nH]2)CC1` is 4-fold lower in TGI: 33.2 µM for the first, 8.4 µM for the second.

`Cc1ccc2c(c1)CC1(Cc3ccccc3C1=O)C2=O` (centres undefined) and `CSc1cc(Cl)c(C)cc1S(=O)(=O)NC(=O)NNc1cccc(C(F)(F)F)n1` cannot be ordered by TGI: > 100 µM for the first, > 100 µM for the second.

With `CN1CCN(CCCNc2nc3ccc(Oc4ccc(NC(=O)Nc5cc(C(F)(F)F)ccc5F)cc4)cc3[nH]2)CC1` the GI50 was 4.37 µM.

These compounds were tested on EKVX NSCLC (assay: inhibition of tumour cell growth, NCI panel, 48 h).

First: Cc1ccc2c(c1)CC1(Cc3ccccc3C1=O)C2=O (centres undefined)
Second: Cc1sc2nc(-c3cccc([N+](=O)[O-])c3)c(/C=N/N=C(N)N)n2c1C
The TGI of the first is higher: > 100 µM for the first, 3.06 µM for the second.

`CSc1cc(Cl)c(C)cc1S(=O)(=O)NC(=O)NNc1cccc(C(F)(F)F)n1` and `CN1CCN(CCCNc2nc3ccc(Oc4ccc(NC(=O)Nc5cc(C(F)(F)F)ccc5F)cc4)cc3[nH]2)CC1` cannot be ordered by TGI: > 100 µM for the first, > 25 µM for the second.

Compared with `COc1cccc2c1C(=O)c1c(O)c3c(c(O)c1C2=O)CC(O)(C(=O)CO)CC3OC1CC(N2CCOCC2C#N)C(O)C(C)O1` (centres undefined), `CCO/C=N\C1=C(C#N)SC2=N/C(=C\c3ccc(OC)cc3)C(=O)N21` is higher in TGI: < 0.0001 µM for the first, > 100 µM for the second.

`CN1CCN(CCCNc2nc3ccc(Oc4ccc(NC(=O)Nc5cc(C(F)(F)F)ccc5F)cc4)cc3[nH]2)CC1` was tested, and the GI50 was 6.69 µM.

Each compound was assayed on SW-620 colon (assay: inhibition of tumour cell growth, NCI panel, 48 h).

First: CC(=O)OC1C(Oc2c(C)cc3c(c2O)[C@@H](C)CC[C@@H]3[C@@H](C)CCC=C(C)C)OCC(O)C1O (some centres undefined)
Second: COc1cccc2c1C(=O)c1c(O)c3c(c(O)c1C2=O)CC(O)(C(=O)CO)CC3OC1CC(N2CCOCC2C#N)C(O)C(C)O1 (centres undefined)
The TGI of the first is 590-fold higher: 33.8 µM for the first, 0.0569 µM for the second.

`Cc1ccc2c(c1)CC1(Cc3ccccc3C1=O)C2=O` (centres undefined) and `CSc1cc(Cl)c(C)cc1S(=O)(=O)NC(=O)NNc1cccc(C(F)(F)F)n1` cannot be ordered by TGI: > 100 µM for the first, > 100 µM for the second.

Compared with `CN1CCN(CCCNc2nc3ccc(Oc4ccc(NC(=O)Nc5cc(C(F)(F)F)ccc5F)cc4)cc3[nH]2)CC1`, `CCO/C=N\C1=C(C#N)SC2=N/C(=C\c3ccc(OC)cc3)C(=O)N21` is higher in TGI: 7.79 µM for the first, > 100 µM for the second.

Work on `CN1CCN(CCCNc2nc3ccc(Oc4ccc(NC(=O)Nc5cc(C(F)(F)F)ccc5F)cc4)cc3[nH]2)CC1` yielded a GI50 of 4.35 µM.

These compounds were tested on A549 NSCLC (assay: inhibition of tumour cell growth, NCI panel, 48 h).

Going from `CC(=O)OC1C(Oc2c(C)cc3c(c2O)[C@@H](C)CC[C@@H]3[C@@H](C)CCC=C(C)C)OCC(O)C1O` (some centres undefined) to `COc1cccc2c1C(=O)c1c(O)c3c(c(O)c1C2=O)CC(O)(C(=O)CO)CC3OC1CC(N2CCOCC2C#N)C(O)C(C)O1` (centres undefined), the TGI rises from 30.2 µM to > 100 µM.

Going from `Cc1ccc2c(c1)CC1(Cc3ccccc3C1=O)C2=O` (centres undefined) to `Cc1sc2nc(-c3cccc([N+](=O)[O-])c3)c(/C=N/N=C(N)N)n2c1C`, the TGI falls from > 100 µM to 3.02 µM.

First: CSc1cc(Cl)c(C)cc1S(=O)(=O)NC(=O)NNc1cccc(C(F)(F)F)n1
Second: CN1CCN(CCCNc2nc3ccc(Oc4ccc(NC(=O)Nc5cc(C(F)(F)F)ccc5F)cc4)cc3[nH]2)CC1
The TGI of the first is higher: > 100 µM for the first, 8.08 µM for the second.

`CCO/C=N\C1=C(C#N)SC2=N/C(=C\c3ccc(OC)cc3)C(=O)N21` was tested, and the TGI was > 100 µM.

`CN1CCN(CCCNc2nc3ccc(Oc4ccc(NC(=O)Nc5cc(C(F)(F)F)ccc5F)cc4)cc3[nH]2)CC1` showed a GI50 of 4.31 µM.
